Several values for one entry are separate records, joined by “and”; a condition that tells them apart may be missing. Equal values may be shown once.
System: myxovirus-resistant protein 1 (Mx1)
Assay: RT-qPCR of Mx1 mRNA in MDCK cells with or without A/PR/8/34 virus
Format: cell-based, canine
Settings: for MDCK Mx1 mRNA, ave / MDCK Mx1 mRNA, individual replicates: 12.5uM, relative to virus - DMSO; for MDCK Mx1 mRNA, ave: ave of #1-3 exp; for MDCK Mx1 mRNA, individual replicates: replicates 1-3 of #1, #2, #3 exp

Structure (SMILES) | mRNA level of Mx1 compared with 4 or 5-treatment | MDCK Mx1 mRNA, ave (virus +) | MDCK Mx1 mRNA, ave (virus -) | also measured
C=C[C@]1(C)CCC(C(=C)C)C(c2ccc(O)cc2)C1 (stereo in doubt) [cyclobakuchiol A] | significantly reduced | 1.207 | 0.4356 | MDCK Mx1 mRNA, individual replicates (virus +, listed as Cyclobakuchiol A): 0.2527 and 2.463 and 2.156 and 2.352 and 0.9916 and 0.8981 and 0.9472 and 0.4146 and 0.3917; MDCK Mx1 mRNA, individual replicates (virus -, listed as Cyclobakuchiol A): 0.3455 and 0.4424 and 0.367 and 0.3469 and 0.4512 and 0.4646 and 0.7257 and 0.3943 and 0.3827
C=C[C@]1(C)CCC(C(=C)C)C(c2ccc(O)cc2)C1 (stereo in doubt) [cyclobakuchiol B] | – | 2.462 | 0.5972 | MDCK Mx1 mRNA, individual replicates (virus +, listed as Cyclobakuchiol B): 0.2997 and 4.213 and 3.979 and 5.553 and 2.777 and 2.185 and 2.395 and 0.2998 and 0.4603; MDCK Mx1 mRNA, individual replicates (virus -, listed as Cyclobakuchiol B): 0.4518 and 0.5333 and 0.4418 and 0.5841 and 1.295 and 0.3791 and 0.8214 and 0.4024 and 0.4657
C=C[C@]1(C)CCC(C(C)(C)O)C(c2ccc(O)cc2)C1 (stereo in doubt) [cyclobakuchiol C] | – | 4.111 | 1.049 | MDCK Mx1 mRNA, individual replicates (virus +, listed as Cyclobakuchiol C): 0.595 and 6.605 and 6.273 and 8.3748 and 5.332 and 3.973 and 4.3945 and 0.841 and 0.6149; MDCK Mx1 mRNA, individual replicates (virus -, listed as Cyclobakuchiol C): 0.8391 and 0.8734 and 1.094 and 0.9606 and 1.231 and 1.129 and 1.257 and 1.188 and 0.8673
C=C[C@]1(C)CCC(C(C)(C)O)C(c2ccc(O)cc2)C1 (stereo in doubt) [cyclobakuchiol D] | – | 4.805 | 1.431 | MDCK Mx1 mRNA, individual replicates (virus +, listed as Cyclobakuchiol D): 0.823 and 8.732 and 6.853 and 11.4737 and 5.421 and 3.904 and 4.71 and 0.7737 and 0.5563; MDCK Mx1 mRNA, individual replicates (virus -, listed as Cyclobakuchiol D): 1.033 and 1.181 and 1.602 and 1.158 and 2.885 and 1.4873 and 1.3014 and 1.1198 and 1.11
C=C[C@@](C)(/C=C/c1ccc(O)cc1)CCC=C(C)C [(+)-(S)-bakuchiol, reference compound] | significantly reduced | 1.1334 | 0.4419 | virus-induced upregulation of Mx1 mRNA: significantly reduced; MDCK Mx1 mRNA, individual replicates (virus +): 0.2413 and 1.8944 and 2.953 and 2.445 and 0.9019 and 0.5846 and 0.6126 and 0.2532 and 0.315; MDCK Mx1 mRNA, individual replicates (virus -): 0.2755 and 0.4409 and 0.4188 and 0.4047 and 0.5819 and 0.4639 and 0.4949 and 0.4956 and 0.401

From article PMC7997032, “Organic synthesis and anti-influenza A virus activity of cyclobakuchiols A, B, C, and D” (PLoS ONE, 2021)
